Test system: yeast genes (expressed mRNA)
Assay: DNA chip measurement of expressed mRNA of yeast genes after culture with a toxic chemical substance
Format: cell-based, Saccharomyces cerevisiae S288C
Conditions: for level of expressed mRNA in the presence of chemical substance / level in the absence of chemical substance: cultured two hours with the chemical substance; for The level of expressed mRNA in the presence of chemical substance/The level of expressed mRNA in the absence of chemical substance: cultured two hours with substance
Procedure, shortened: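 Fluorescence ratio, treated over untreated, read by chip scanner; ratio of two or more counted significant. Cells: S288C yeast, YPD, 25° C, chemical added at log phase for 2 h at growth-inhibiting, sublethal level. Cy3/Cy5-labeled cDNA from oligo-dT-purified mRNA.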

With “Manganese ethylenebis(dithiocarbamate) [(8)]” the “level of expressed mRNA in the presence of chemical substance / level in the absence of chemical substance” value (yeast gene YDR128W) was 1.1, the “level of expressed mRNA in the presence of chemical substance / level in the absence of chemical substance” value (yeast gene YDR133C) was 0.5 and the “level of expressed mRNA in the presence of chemical substance / level in the absence of chemical substance” value (yeast gene YDR250C) was 1.1. For the same substance, the “level of expressed mRNA in the presence of chemical substance / level in the absence of chemical substance” value (yeast gene YDR278C) was 0.5, the “level of expressed mRNA in the presence of chemical substance / level in the absence of chemical substance” value (yeast gene YDR281C) was 1.2 and the “The level of expressed mRNA in the presence of chemical substance/The level of expressed mRNA in the absence of chemical substance” value (yeast gene YDR330W) was 1.1. For the same substance, the “level of expressed mRNA in the presence of chemical substance / level in the absence of chemical substance” value (yeast gene YDR366C) was 1.1, the “The level of expressed mRNA in the presence of chemical substance/The level of expressed mRNA in the absence of chemical substance” value (yeast gene YDR411C) was 0.9 and the “The level of expressed mRNA in the presence of chemical substance/The level of expressed mRNA in the absence of chemical substance” value (yeast gene YDR511W) was 1.7. For the same substance, the “The level of expressed mRNA in the presence of chemical substance/The level of expressed mRNA in the absence of chemical substance” value (yeast gene YDR545W) was 0.6, the “The level of expressed mRNA in the presence of chemical substance/The level of expressed mRNA in the absence of chemical substance” value (yeast gene YEL001C) was 1.2 and the “The level of expressed mRNA in the presence of chemical substance/The level of expressed mRNA in the absence of chemical substance” value (yeast gene YER004W) was 1.1. For the same substance, the “The level of expressed mRNA in the presence of chemical substance/The level of expressed mRNA in the absence of chemical substance” value (yeast gene YER035W) was 1.2, the “The level of expressed mRNA in the presence of chemical substance/The level of expressed mRNA in the absence of chemical substance” value (yeast gene YER079W) was 1.4 and the “The level of expressed mRNA in the presence of chemical substance/The level of expressed mRNA in the absence of chemical substance” value (yeast gene YER106W) was 1.2. For the same substance, the “The level of expressed mRNA in the presence of chemical substance/The level of expressed mRNA in the absence of chemical substance” value (yeast gene YER158C) was 0.9, the “The level of expressed mRNA in the presence of chemical substance/The level of expressed mRNA in the absence of chemical substance” value (yeast gene YER163C) was 1.4 and the “The level of expressed mRNA in the presence of chemical substance/The level of expressed mRNA in the absence of chemical substance” value (yeast gene YER175C) was 1.1. The “The level of expressed mRNA in the presence of chemical substance/The level of expressed mRNA in the absence of chemical substance” value (yeast gene YFL006W) was 1.0, the “The level of expressed mRNA in the presence of chemical substance/The level of expressed mRNA in the absence of chemical substance” value (yeast gene YFL010C) was 1.0 and the “The level of expressed mRNA in the presence of chemical substance/The level of expressed mRNA in the absence of chemical substance” value (yeast gene YFL024C) was 0.9. The “The level of expressed mRNA in the presence of chemical substance/The level of expressed mRNA in the absence of chemical substance” value (yeast gene YFL032W) was 0.4, the “level of expressed mRNA in the presence of chemical substance / level in the absence of chemical substance” value (yeast gene YFR026C) was 1.3 and the “The level of expressed mRNA in the presence of chemical substance/The level of expressed mRNA in the absence of chemical substance” value (yeast gene YGL037C) was 1.2. The “The level of expressed mRNA in the presence of chemical substance/The level of expressed mRNA in the absence of chemical substance” value (yeast gene YGL047W) was 1.1, the “The level of expressed mRNA in the presence of chemical substance/The level of expressed mRNA in the absence of chemical substance” value (yeast gene YGL053W) was 1.2 and the “level of expressed mRNA in the presence of chemical substance / level in the absence of chemical substance” value (yeast gene YGL088W) was 0.5. The “The level of expressed mRNA in the presence of chemical substance/The level of expressed mRNA in the absence of chemical substance” value (yeast gene YGL121C) was 3.0, the “The level of expressed mRNA in the presence of chemical substance/The level of expressed mRNA in the absence of chemical substance” value (yeast gene YGL199C) was 0.7 and the “level of expressed mRNA in the presence of chemical substance / level in the absence of chemical substance” value (yeast gene YGR038W) was 0.7. For the same substance, the “The level of expressed mRNA in the presence of chemical substance/The level of expressed mRNA in the absence of chemical substance” value (yeast gene YGR101W) was 0.8, the “The level of expressed mRNA in the presence of chemical substance/The level of expressed mRNA in the absence of chemical substance” value (yeast gene YGR110W) was 1.5 and the “The level of expressed mRNA in the presence of chemical substance/The level of expressed mRNA in the absence of chemical substance” value (yeast gene YGR130C) was 0.9. For the same substance, the “level of expressed mRNA in the presence of chemical substance / level in the absence of chemical substance” value (yeast gene YGR139W) was 0.6, the “The level of expressed mRNA in the presence of chemical substance/The level of expressed mRNA in the absence of chemical substance” value (yeast gene YGR154C) was 1.7 and the “The level of expressed mRNA in the presence of chemical substance/The level of expressed mRNA in the absence of chemical substance” value (yeast gene YGR221C) was 1.1. The “level of expressed mRNA in the presence of chemical substance / level in the absence of chemical substance” value (yeast gene YGR243W) was 1.3, the “level of expressed mRNA in the presence of chemical substance / level in the absence of chemical substance” value (yeast gene YGR293C) was 1.3 and the “level of expressed mRNA in the presence of chemical substance / level in the absence of chemical substance” value (yeast gene YHL006C) was 1.1. The “level of expressed mRNA in the presence of chemical substance / level in the absence of chemical substance” value (yeast gene YHR095W) was 1.0, the “level of expressed mRNA in the presence of chemical substance / level in the absence of chemical substance” value (yeast gene YHR105W) was 1.0 and the “The level of expressed mRNA in the presence of chemical substance/The level of expressed mRNA in the absence of chemical substance” value (yeast gene YHR138C) was 1.4. For the same substance, the “level of expressed mRNA in the presence of chemical substance / level in the absence of chemical substance” value (yeast gene YHR181W) was 0.9, the “The level of expressed mRNA in the presence of chemical substance/The level of expressed mRNA in the absence of chemical substance” value (yeast gene YHR199C) was 1.0 and the “The level of expressed mRNA in the presence of chemical substance/The level of expressed mRNA in the absence of chemical substance” value (yeast gene YIL023C) was 0.7. The “The level of expressed mRNA in the presence of chemical substance/The level of expressed mRNA in the absence of chemical substance” value (yeast gene YIL041W) was 0.9, the “The level of expressed mRNA in the presence of chemical substance/The level of expressed mRNA in the absence of chemical substance” value (yeast gene YIL087C) was 1.1 and the “level of expressed mRNA in the presence of chemical substance / level in the absence of chemical substance” value (yeast gene YIL127C) was 1.2. The “level of expressed mRNA in the presence of chemical substance / level in the absence of chemical substance” value (yeast gene YJL017W) was 1.0, the “level of expressed mRNA in the presence of chemical substance / level in the absence of chemical substance” value (yeast gene YJL037W) was 1.2 and the “The level of expressed mRNA in the presence of chemical substance/The level of expressed mRNA in the absence of chemical substance” value (yeast gene YJL057C) was 1.5. The “The level of expressed mRNA in the presence of chemical substance/The level of expressed mRNA in the absence of chemical substance” value (yeast gene YJL066C) was 0.8 and the “The level of expressed mRNA in the presence of chemical substance/The level of expressed mRNA in the absence of chemical substance” value (yeast gene YJL082W) was 0.9.
